# Where two headings read alike, the source gives them in different places.
# Assays:
# [1] = target: T1, ERK5 (Homo sapiens, UniProt Q13164); test: ERK5 IMAP assay (fluorescence polarisation); assay type: biochemical
# T1 construct: made in house
# [2] = system: ERK5 (HA-ERK5 wt activated by EGFP-MEK5D, MEF2D-Gal4/Gal4-Luc reporter) in HEK293 cells; test: Dual-luciferase reporter assay (ERK5 reporter), reverse-transfected HEK293 cells; settings: Homo sapiens, HEK293, read-out: ERK 5 Reporter Assay
# Procedure: Dual-Luciferase Reporter Assay
# Trypsinizing of Adherent Cell Colonies
# Cells were regularly passaged in order to maintain optimum colony sizes on plates. In order to do this, and to harvest cells for use in the dual-luciferase reporter assay, adherent cells were lifted from tissue culture dishes. Cell media was removed via aspiration, and the cell monolayer was washed with phosphate buffered saline (PBS) solution (10 mL), which was then aspirated.
# Reverse Transfection of HEK293 Cells
# Preparation of EGFP Control (C3) Working Solution (for 1×96 Well Plate)
# Preparation of HEK293 Cells for Reverse Transfection
# Trypsinized HEK293 cells were re-suspended in 19 mL of fresh cell media and counted using haemocytometry. Cells were then diluted with fresh cell media to achieve a final cell concentration of 2×10^5 cells/mL. 1237.5 μL and 7425 μL of this cell media was added to the C3 and 5D working solutions respectively. 100 μL of the transfected cells were then aliquoted into the appropriate wells in a 96-well opaque sided tissue culture plate, and incubated at 37° C. for 6 h.
# Addition of Compounds to HEK293 Cells
# 4 compounds was assayed per 96-well plate. For each compound, 1 mL of growth media was added to eight 1.5 mL Eppendorf® tubes. 6 μL of DMSO was added to two tubes for C3 and blank 5D wells, and 6 μL of the relevant compound stock solution was added to the 6 remaining tubes. […] Solutions of drug in media were thoroughly mixed, and 100 μL of the relevant compound was transferred (in triplicate) to the 96-well plate containing transfected HEK293 cells using an electronic multichannel pipette with variable tip spacing. Sealed plates were incubated at 37° C. for 24 h. Final compound concentrations were as follows; 30 μM, 10 μM, 3 μM, 1 μM and 0.3 μM.
# 15 mL of 1× passive lysis buffer (PLB) was prepared using 5×PLB (Dual-Luciferase Reporter Assay System, Promega® E1960), diluting with H2O. Assay plates prepared were removed from the incubator and the growth media removed by aspiration.
# [3] = average (e.g. geometric mean) where more than one data point, read-out: ERK5 IC50
# T1 sequence (Q13164 whole entry): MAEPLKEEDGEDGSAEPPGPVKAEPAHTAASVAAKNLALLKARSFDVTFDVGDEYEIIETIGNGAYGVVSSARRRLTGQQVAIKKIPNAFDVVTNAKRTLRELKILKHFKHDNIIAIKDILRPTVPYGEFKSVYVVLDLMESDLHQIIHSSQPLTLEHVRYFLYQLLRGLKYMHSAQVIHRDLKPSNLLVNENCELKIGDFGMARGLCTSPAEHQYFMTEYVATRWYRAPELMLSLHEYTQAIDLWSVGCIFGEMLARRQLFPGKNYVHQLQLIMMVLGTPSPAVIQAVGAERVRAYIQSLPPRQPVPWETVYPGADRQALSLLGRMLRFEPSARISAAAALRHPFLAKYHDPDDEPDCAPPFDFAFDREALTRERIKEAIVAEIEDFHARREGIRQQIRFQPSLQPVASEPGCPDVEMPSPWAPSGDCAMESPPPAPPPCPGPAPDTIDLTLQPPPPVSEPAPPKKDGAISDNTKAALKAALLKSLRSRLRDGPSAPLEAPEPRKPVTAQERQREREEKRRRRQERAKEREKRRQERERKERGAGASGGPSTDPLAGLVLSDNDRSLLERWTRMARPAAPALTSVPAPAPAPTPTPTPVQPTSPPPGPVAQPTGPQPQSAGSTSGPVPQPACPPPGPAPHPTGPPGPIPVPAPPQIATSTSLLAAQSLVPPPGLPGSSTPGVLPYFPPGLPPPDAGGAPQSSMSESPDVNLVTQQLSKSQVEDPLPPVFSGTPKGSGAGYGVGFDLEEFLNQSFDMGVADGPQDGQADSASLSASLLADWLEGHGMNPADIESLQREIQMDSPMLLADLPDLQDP
"IC50 [1, 3] [nM]",IC50 [1] [nM],Structure (SMILES),IC50 [2] [nM]
1710,–,"O=C(NC1CCNCC1)c1cc(C(=O)c2cccc(Cl)c2Cl)c[nH]1 [Example 160, 4-(2,3-Dichlorobenzoyl)-N-(piperidin-4-yl)-1H-pyrrole-2-carboxamide]",30000
91.5,–,"CN1CCN(c2ccc(NC(=O)c3cc(C(=O)c4c(F)cccc4Cl)c[nH]3)cn2)CC1 [Example 31, 4-(2-Chloro-6-fluorobenzoyl)-N-(6-(4-methylpiperazin-1-yl)pyridin-3-yl)-1H-pyrrole-2-carboxamide]",1180
–,1120,"O=C(Nc1cccnc1)c1cc(C(=O)c2c(F)cccc2F)c[nH]1 [Example 122, 4-(2,6-Difluorobenzoyl)-N-(pyridin-3-yl)-1H-pyrrole-2-carboxamide]",26000
144,–,"CS(=O)(=O)N1CCC(NC(=O)c2cc(C(=O)c3c(Cl)ccc(Cl)c3F)c[nH]2)CC1 [Example 9, 4-(3,6-Dichloro-2-fluorobenzoyl)-N-(1-(methylsulfonyl)piperidin-4-yl)-1H-pyrrole-2-carboxamide]",826
1490,–,"O=C(Nc1cccnc1)c1cc(C(=O)c2cccc(Cl)c2Cl)c[nH]1 [Example 159, 4-(2,3-Dichlorobenzoyl)-N-(pyridin-3-yl)-1H-pyrrole-2-carboxamide]",24000
199,–,"CN1CCC(NC(=O)c2cc(C(=O)c3c(F)cccc3Cl)c[nH]2)CC1 [Example 192, 4-(2-Chloro-6-fluorobenzoyl)-N-(1-methylpiperidin-4-yl)-1H-pyrrole-2-carboxamide]",3010
386,–,"O=C(NC1CCNCC1)c1cc(C(=O)c2c(F)cccc2Br)c[nH]1 [Example 197, 4-(2-Bromo-6-fluorobenzoyl)-N-(piperidin-4-yl)-1H-pyrrole-2-carboxamide]",22000
487,–,"O=C(NC1CCNCC1)c1cc(C(=O)c2c(F)cccc2Cl)c[nH]1 [Example 3, 4-(2-Chloro-6-fluorobenzoyl)-N-(piperidin-4-yl)-1H-pyrrole-2-carboxamide]",3500
5680,–,"O=C(Nc1cccnc1)c1cc(C(=O)c2c(F)cccc2C(F)(F)F)c[nH]1 [Example 184, 4-(2-Fluoro-6-(trifluoromethyl)benzoyl)-N-(pyridin-3-yl)-1H-pyrrole-2-carboxamide]",10300
316,–,"O=C(Nc1cncnc1)c1cc(C(=O)c2c(Cl)ccc(Cl)c2F)c[nH]1 [Example 173, 4-(3,6-Dichloro-2-fluorobenzoyl)-N-(pyrimidin-5-yl)-1H-pyrrole-2-carboxamide]",508
87.8,–,"CC(=O)N1CCC(NC(=O)c2cc(C(=O)c3c(Cl)ccc(Cl)c3F)c[nH]2)CC1 [Example 7, N-(1-Acetylpiperidin-4-yl)-4-(3,6-dichloro-2-fluorobenzoyl)-1H-pyrrole-2-carboxamide]",968
156,–,"CN1CCC(NC(=O)c2cc(C(=O)c3c(F)ccc(Cl)c3F)c[nH]2)CC1 [Example 213, 4-(3-Chloro-2,6-difluorobenzoyl)-N-(1-methylpiperidin-4-yl)-1H-pyrrole-2-carboxamide]",3510
–,676,"O=C(Nc1ccncc1)c1cc(C(=O)c2c(F)cccc2Br)c[nH]1 [Example 189, 4-(2-Bromo-6-fluorobenzoyl)-N-(pyridin-4-yl)-1H-pyrrole-2-carboxamide]",4000
2860,–,"CC(C)(C)OC(=O)N1CCC(NC(=O)c2cc(C(=O)c3c(F)cccc3F)c[nH]2)CC1 [Example 123, tert-Butyl 4-(4-(2,6-difluorobenzoyl)-1H-pyrrole-2-carboxamido)piperidine-1-carboxylate]",25000
1880,–,"O=C(Nc1ccncc1)c1cc(C(=O)c2c(F)cccc2C(F)(F)F)c[nH]1 [Example 183, 4-(2-Fluoro-6-(trifluoromethyl)benzoyl)-N-(pyridin-4-yl)-1H-pyrrole-2-carboxamide]",7670
1130,–,"CN1CCC(NC(=O)c2cc(C(=O)c3c(F)cccc3F)c[nH]2)CC1 [Example 129, 4-(2,6-Difluorobenzoyl)-N-(1-methylpiperidin-4-yl)-1H-pyrrole-2-carboxamide]",6000
–,–,"O=C(NC1CCNCC1)c1cc(C(=O)c2c(Cl)ccc(Cl)c2F)c[nH]1 [Example 4, 4-(3,6-Dichloro-2-fluorobenzoyl)-N-(piperidin-4-yl)-1H-pyrrole-2-carboxamide]",2340

"IC50 [1, 3] [nM]",IC50 [1] [nM],Structure (SMILES),IC50 [2] [nM]
–,602,"O=C(Nc1ccncc1)c1cc(C(=O)c2c(F)cccc2Cl)c[nH]1 [Example 187, 4-(2-Chloro-6-fluorobenzoyl)-N-(pyridin-4-yl)-1H-pyrrole-2-carboxamide]",2330
123,–,"O=C(Nc1cnn(C2CCNCC2)c1)c1cc(C(=O)c2c(F)cccc2Cl)c[nH]1 [Example 52, 4-(2-Chloro-6-fluorobenzoyl)-N-(1-(piperidin-4-yl)-1H-pyrazol-4-yl)-1H-pyrrole-2-carboxamide]",8810
2410,–,"O=C(NC1CCNCC1)c1cc(C(=O)c2c(F)cccc2C(F)(F)F)c[nH]1 [Example 161, 4-(2-Fluoro-6-(trifluoromethyl)benzoyl)-N-(piperidin-4-yl)-1H-pyrrole-2-carboxamide]",16700
6030,–,"O=C(Nc1cccnc1)c1cc(C(=O)c2cc(F)ccc2F)c[nH]1 [Example 225, 4-(2,5-Difluorobenzoyl)-N-(pyridin-3-yl)-1H-pyrrole-2-carboxamide]",4770
2250,–,"O=C(NC1CCOCC1)c1cc(C(=O)c2c(F)cccc2F)c[nH]1 [Example 124, 4-(2,6-Difluorobenzoyl)-N-(tetrahydro-2H-pyran-4-yl)-1H-pyrrole-2-carboxamide]",23300
1400,–,"Cc1cccc(F)c1C(=O)c1c[nH]c(C(=O)NC2CCNCC2)c1 [Example 191, 4-(2-Fluoro-6-methylbenzoyl)-N-(piperidin-4-yl)-1H-pyrrole-2-carboxamide]",19500
1260,–,"O=C(NC1CCNCC1)c1cc(C(=O)c2c(F)cccc2F)c[nH]1 [Example 126, 4-(2,6-Difluorobenzoyl)-N-(piperidin-4-yl)-1H-pyrrole-2-carboxamide]",18300
75.2,–,"COCCn1cc(NC(=O)c2cc(C(=O)c3c(Cl)ccc(Cl)c3F)c[nH]2)cn1 [Example 47, 4-(3,6-Dichloro-2-fluorobenzoyl)-N-(1-(2-methoxyethyl)-1H-pyrazol-4-yl)-1H-pyrrole-2-carboxamide]",–
643,–,C=Cc1ccc(F)c(C(=O)c2c[nH]c(C(=O)NC3CCN(C)CC3)c2)c1F [Ex 167],–
2320,–,"O=C(Nc1ccnc(Cl)c1)c1cc(C(=O)c2c(F)cccc2Cl)c[nH]1 [Example 34, 4-(2-Chloro-6-fluorobenzoyl)-N-(2-chloropyridin-4-yl)-1H-pyrrole-2-carboxamide]",–
1500,–,"O=C(Nc1cnc(N2CCOCC2)nc1)c1cc(C(=O)c2c(Cl)ccc(Cl)c2F)c[nH]1 [Example 20, 4-(3,6-Dichloro-2-fluorobenzoyl)-N-(2-morpholinopyrimidin-5-yl)-1H-pyrrole-2-carboxamide]",–
7980,–,"O=C(Nc1cccnc1N1CCCC1)c1cc(C(=O)c2c(F)cccc2Cl)c[nH]1 [Example 80, 4-(2-Chloro-6-fluorobenzoyl)-N-(2-(pyrrolidin-1-yl)pyridin-3-yl)-1H-pyrrole-2-carboxamide]",–
1580,–,"C=Cc1ccc(F)c(C(=O)c2c[nH]c(C(=O)Nc3cccnc3)c2)c1F [Example 165, 4-(2,6-Difluoro-3-vinylbenzoyl)-N-(pyridin-3-yl)-1H-pyrrole-2-carboxamide]",–
86.6,–,"O=C(Nc1cnn(C2COC2)c1)c1cc(C(=O)c2c(Cl)ccc(Cl)c2F)c[nH]1 [Example 239, 4-(3,6-Dichloro-2-fluorobenzoyl)-N-(1-(oxetan-3-yl)-1H-pyrazol-4-yl)-1H-pyrrole-2-carboxamide]",–
4950,–,"Cc1cc(NC(=O)c2cc(C(=O)c3c(F)cccc3Br)c[nH]2)nc(C)n1 [Example 143, 4-(2-Bromo-6-fluorobenzoyl)-N-(2,6-dimethylpyrimidin-4-yl)-1H-pyrrole-2-carboxamide]",–
1190,–,"O=C(Nc1cccnc1)c1cc(C(=O)c2c(Cl)ccc(O)c2F)c[nH]1 [Example 254, 4-(6-Chloro-2-fluoro-3-hydroxybenzoyl)-N-(pyridin-3-yl)-1H-pyrrole-2-carboxamide]",–
21,–,"O=C(Nc1cnn(Cc2ccncc2)c1)c1cc(C(=O)c2c(Cl)ccc(Cl)c2F)c[nH]1 [Example 50, 4-(3,6-Dichloro-2-fluorobenzoyl)-N-(1-(pyridin-4-ylmethyl)-1H-pyrazol-4-yl)-1H-pyrrole-2-carboxamide]",–
